# From US8022208B2, “Benzene derivative or salt thereof” (Astellas Pharma Inc., priority 2005, dated 2011)
# Legend:
# human factor Xa = target: T1, human factor Xa (Homo sapiens, UniProt P00742); test: Enzyme inhibition by synthetic substrate method (S-2222); assay type: biochemical; details: human factor Xa 0.025 U/ml, synthetic substrate S-2222, pH 8.4, 37° C., 10 minutes
# T1 construct: purchased Enzyme Research Labs
# Protocol: 2) Test of Measuring Enzyme Inhibition by Synthetic Substrate Method:
# 25 μl of a reaction buffer (pH 8.4), 5 μl of a test compound dissolved in DMSO or DMSO alone, and 10 μl of a synthetic substrate, 2 mM S-2222 (Chromogenix) were added to a 96-well microplate, then 10 μl of 0.025 U/ml human factor Xa was added thereto, and reacted at 37° C. for 10 minutes, and then the absorbance change at 405 nm was measured with Molecular Devices' Spectramax 340PC^384, and the IC50 value was calculated.
# human plasma = test: Extrinsic coagulation time (PT) in human plasma; details: HemosIL RecombiPlasTin
# Protocol: 3) Extrinsic Coagulation Time (PT):
# 2 μl of a test compound dissolved in DMSO or DMSO alone, and 50 μl of physiological saline were added to 50 μl of human plasma warmed at 37° C. for 1 minute, then 100 μl of HemosIL RecombiPlasTin (Instrumentation Laboratory) was added, and the coagulation time was measured. For measuring the coagulation time, used was Amelung's KC10A. The CT2 value (the concentration for 2-fold prolongation of the coagulation time with DMSO) was calculated through linear regression, by plotting the relative value (fold) of the coagulation time to the control and the test compound concentration.
# mouse plasma = test: Ex vivo coagulation time with mice (oral administration), extrinsic coagulation time (PT); assay type: in vivo, male ICR mice; details: oral 100 mg/kg, 30 minutes after administration
# Protocol: 4) Test of Measuring Ex Vivo Coagulation Time with Mice (Oral Administration):
# To test animals of male ICR mice (body weight, about 40 g, SLC) that had been fasted for 12 hours or longer, a solution or suspension of a test compound dissolved in 0.5% methyl cellulose was forcedly orally administered (100 mg/kg), using a feeding needle; and after 30 minutes and after 2 hours, under anesthesia with diethyl ether, 1 ml of blood was collected from the mice through their postcaval vein in 3.8% sodium citrate to be 1/10 by volume, and centrifuged at 12000 rpm for 3 minutes to separate plasma therefrom. The extrinsic coagulation time (PT) and the intrinsic coagulation time (APTT) for this plasma were measured according to the following methods a) and b).
# a) Extrinsic Coagulation Time (PT):
# 50 μl of the mouse plasma was warmed at 37° C. for 1 minute, and 100 μl of HemosIL RecombiPlasTin was added, and the coagulation time was counted. For measuring the coagulation time, used was Amelung's KC10A. The mouse plasma coagulation time with no test compound administration was control; and the coagulation time prolonging activity of the test compound was represented by a relative value to the control, 1.
# T1 sequence (P00742 235-488 limits assumed): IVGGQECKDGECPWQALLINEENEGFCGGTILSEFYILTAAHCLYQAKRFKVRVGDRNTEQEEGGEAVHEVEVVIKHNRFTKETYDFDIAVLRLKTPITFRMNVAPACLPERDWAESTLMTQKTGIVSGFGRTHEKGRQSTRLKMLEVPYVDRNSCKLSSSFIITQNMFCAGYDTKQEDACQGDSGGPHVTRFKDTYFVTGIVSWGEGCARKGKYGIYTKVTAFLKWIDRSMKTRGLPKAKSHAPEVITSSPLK
# T1 sequence (P00742 41-179 partner limits assumed): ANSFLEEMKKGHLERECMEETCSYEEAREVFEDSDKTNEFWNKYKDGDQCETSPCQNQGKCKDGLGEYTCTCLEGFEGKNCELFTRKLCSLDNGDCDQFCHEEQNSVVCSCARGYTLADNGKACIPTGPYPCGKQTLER
SMILES,IC50 (human factor Xa) [nM],CT2 value (the concentration for 2-fold prolongation of the coagulation time with DMSO) (human plasma) [µM],"coagulation time prolonging activity (relative value to the control, 1) (mouse plasma) [times]"
"Cl.Cn1ccc(=O)c(-c2ccc(C(=O)Nc3c(O)cccc3C(=O)Nc3ccc(Cl)cn3)cc2)c1 [Example 1, N-(5-chloropyridin-2-yl)-3-hydroxy-2-{[4-(1-methyl-4-oxo-1,4-dihydropyridin-3-yl)benzoyl]amino}benzamide hydrochloride]",6.7,0.34,–
CN(C)CCn1cccc(-c2ccc(C(=O)Nc3c(O)cccc3C(=O)Nc3ccc(Cl)cn3)cc2)c1=O.Cl [Example 10],–,–,3.3
CN1CCC(OCCn2cccc(-c3ccc(C(=O)Nc4c(O)cc(Cl)cc4C(=O)Nc4ccc(Cl)cn4)cc3)c2=O)CC1.Cl [Example 78],–,–,3.9
Cl.O=C(Nc1c(O)cccc1C(=O)Nc1ccc(Cl)cn1)c1ccc(-c2cccn(CCN3CCCOCC3)c2=O)cc1 [Example 42],–,0.65,–
Cn1cccc(-c2ccc(C(=O)Nc3c(O)cccc3C(=O)Nc3ccc(Cl)cn3)cc2)c1=O [Example 30],8.3,–,–
